In ChEMBL document CHEMBL4130544, “Bioactive Asarone-Derived Phenylpropanoids from the Rhizome of Acorus tatarinowii Schott” (J Nat Prod, 2017):
Active and inactive are the calls of the source. The calls are words filed in the database; no cut-off is given here.

Key:
[1] = target: Acetylcholinesterase (Homo sapiens) (UniProt P22303); assay: Inhibition of AChE (unknown origin) at 100 uM using acetylthiocholine iodide as substrate measured after 30 mins by Ellman's method
Alpha glucosidase [2] = target: T1, Alpha glucosidase (Homo sapiens, UniProt O43451+P10253+P14410+Q2M2H8); assay: Inhibition of alpha-glucosidase (unknown origin) at 400 uM using p-NPG as substrate pretreated for 10 mins followed by substrate addition measured after 5 mins; type: protein assay
[3] = Antioxidant activity assessed as DPPH radical scavenging activity at 100 uM incubated for 30 mins under dark condition; type: functional
[4] = Antioxidant activity assessed as AAPH radical scavenging activity at 12.5 uM by ORAC-FL assay; type: functional
Alpha glucosidase [5] = target: T1, Alpha glucosidase; assay: Inhibition of alpha-glucosidase (unknown origin) using p-NPG as substrate pretreated for 10 mins followed by substrate addition measured after 5 mins; type: protein assay

Sequence of Acetylcholinesterase (Homo sapiens) (P22303 whole entry): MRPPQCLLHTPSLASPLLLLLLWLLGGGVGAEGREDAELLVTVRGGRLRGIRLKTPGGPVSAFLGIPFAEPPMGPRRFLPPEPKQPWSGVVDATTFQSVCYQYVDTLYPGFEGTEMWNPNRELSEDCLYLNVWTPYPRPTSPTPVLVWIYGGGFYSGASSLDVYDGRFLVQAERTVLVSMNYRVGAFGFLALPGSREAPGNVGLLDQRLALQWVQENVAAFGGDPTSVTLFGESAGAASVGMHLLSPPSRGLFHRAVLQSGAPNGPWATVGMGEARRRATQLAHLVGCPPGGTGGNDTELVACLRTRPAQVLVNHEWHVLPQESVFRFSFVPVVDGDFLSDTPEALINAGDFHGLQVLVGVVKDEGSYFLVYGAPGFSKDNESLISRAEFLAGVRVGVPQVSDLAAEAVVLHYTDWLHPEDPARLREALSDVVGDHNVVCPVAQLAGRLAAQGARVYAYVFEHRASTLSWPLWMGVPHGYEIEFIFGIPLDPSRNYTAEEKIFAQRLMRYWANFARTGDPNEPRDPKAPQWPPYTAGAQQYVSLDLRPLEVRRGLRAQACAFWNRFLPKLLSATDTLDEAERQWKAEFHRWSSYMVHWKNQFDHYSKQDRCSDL

SMILES	inhibition [1]	inhibition (Alpha glucosidase [2])	Activity [3]	Activity [4]	IC50 (Alpha glucosidase [5])
COc1cc(OC)c(C(C)=O)cc1OC	Active	Active	–	–	–
COc1cc(OC)c([C@@H](C)C(OC)OC)cc1OC	Active	Active	–	–	–
COc1cc(OC)c([C@H](OC)[C@H](C)O)cc1OC	Active	Active	–	–	–
COc1cc([C@H]2Oc3c(OC)cc(CCCO[C@@H]4O[C@H](CO)[C@@H](O)[C@H](O)[C@H]4O)cc3[C@@H]2CO)ccc1O	Active	Active	Active	3.17 µMequiv/µM	–
COc1cc(OC)c([C@@H]2[C@@H](C)[C@H](c3cc(OC)c(OC)cc3OC)O[C@@H]2C)cc1OC (racemic)	Active	Active	–	–	–
CCO[C@@H](c1cc(OC)c(OC)cc1OC)[C@H](C)O	Active	Active	–	–	–
COc1cc(OC)c(OC)cc1C=O	Active	Active	–	–	–
COc1cc([C@H]2OC[C@H]3[C@@H]2CO[C@@H]3c2ccc(O)c(OC)c2)ccc1O (racemic)	Active	Active	Active	Active	–
COc1cc(OC)c([C@H](O)[C@@H](C)O)cc1OC (relative stereo)	Active	Active	–	–	–
CCO[C@H](c1cc(OC)c(OC)cc1OC)[C@H](C)O	Active	Active	–	–	–
O=C(O[C@@H]1Cc2c(O)cc(O)cc2O[C@@H]1c1cc(O)c(O)c(O)c1)c1cc(O)c(O)c(O)c1	–	–	–	1.97 µMequiv/µM	–
COc1cc(OC)c(C(O)C(C)=O)cc1OC (stereo not drawn)	Active	Active	–	–	–
COc1cc([C@H]2Oc3c(OC)cc(CCCO)cc3[C@@H]2CO[C@@H]2O[C@H](CO)[C@@H](O)[C@H](O)[C@H]2O)ccc1O	Active	Active	Active	Active	–
COc1cc(OC)c([C@H](C)C(OC)OC)cc1OC	Active	Active	–	–	–
COc1ccc(CCCO)cc1OC	Active	Active	–	–	–
COc1cc(OC)c([C@@H](O)[C@@H](C)O)cc1OC (relative stereo)	Active	Active	–	–	–
CCO[C@@H](c1cc(OC)c(OC)cc1OC)[C@@H](C)O	Active	Active	–	–	–
CCO[C@H](c1cc(OC)c(OC)cc1OC)[C@@H](C)O	Active	Active	–	–	–
COc1cc(OC)c([C@H](OC)[C@@H](C)O)cc1OC	Active	inactive	–	–	–
COc1cc(OC)c([C@@H](OC)[C@H](C)O)cc1OC	Active	Active	–	–	80.6 µM
COc1cc(OC)c([C@@H](OC)[C@@H](C)O)cc1OC	Active	Active	–	–	–
